Experiment [1] relates to chondrocytes in culture and explants of articular cartilage. The note with it: cited from earlier work.
The target in experiment [2] is T1, JAK3 (Homo sapiens, UniProt P52333).
T1 sequence (P52333 1-1124): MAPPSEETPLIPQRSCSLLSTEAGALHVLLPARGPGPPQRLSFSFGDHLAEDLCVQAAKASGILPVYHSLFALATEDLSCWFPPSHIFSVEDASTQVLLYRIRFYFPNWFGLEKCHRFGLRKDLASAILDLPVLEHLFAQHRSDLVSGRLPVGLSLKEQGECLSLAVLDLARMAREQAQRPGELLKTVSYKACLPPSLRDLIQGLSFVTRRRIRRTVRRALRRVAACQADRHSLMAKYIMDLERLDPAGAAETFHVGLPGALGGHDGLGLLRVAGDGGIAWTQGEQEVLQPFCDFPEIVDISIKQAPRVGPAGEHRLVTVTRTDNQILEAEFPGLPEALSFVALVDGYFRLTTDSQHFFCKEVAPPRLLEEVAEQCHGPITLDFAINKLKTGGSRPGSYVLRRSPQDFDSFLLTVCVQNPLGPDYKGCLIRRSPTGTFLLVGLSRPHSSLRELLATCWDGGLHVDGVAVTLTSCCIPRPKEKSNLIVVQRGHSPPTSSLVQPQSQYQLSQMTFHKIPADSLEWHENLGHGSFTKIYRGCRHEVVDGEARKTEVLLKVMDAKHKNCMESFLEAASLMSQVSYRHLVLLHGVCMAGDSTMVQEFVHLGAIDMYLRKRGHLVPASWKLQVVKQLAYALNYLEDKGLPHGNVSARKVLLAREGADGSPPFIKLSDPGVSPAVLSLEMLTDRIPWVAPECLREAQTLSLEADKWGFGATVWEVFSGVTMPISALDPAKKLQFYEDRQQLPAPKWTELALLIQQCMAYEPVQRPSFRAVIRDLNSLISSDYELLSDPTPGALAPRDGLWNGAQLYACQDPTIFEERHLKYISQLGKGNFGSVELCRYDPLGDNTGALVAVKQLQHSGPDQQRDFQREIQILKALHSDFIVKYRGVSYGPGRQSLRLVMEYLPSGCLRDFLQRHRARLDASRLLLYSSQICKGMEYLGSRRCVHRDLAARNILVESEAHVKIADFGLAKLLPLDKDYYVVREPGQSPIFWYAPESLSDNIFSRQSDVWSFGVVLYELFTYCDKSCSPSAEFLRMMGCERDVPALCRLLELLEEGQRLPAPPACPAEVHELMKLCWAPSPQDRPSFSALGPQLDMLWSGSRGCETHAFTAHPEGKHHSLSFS
Description: tyrosine kinase ELISA, DBH inhibition of JAK3 (Example 6). The note with it: GAS 1 biotinylated peptide substrate, 0-1250 μM ATP, 30 min at 37° C., read-out: inhibition constant (Ki). The class given is biochemical. The protocol: Nunc-Immunoplate Maxisorp flat-bottomed capture plates (Nalge Nunc International, Rochester, N.Y.) were coated with 80 μl/well anti-phosphotyrosine PY54 MAb antibody (Transduction Labs, Lexington, Ky.), diluted to 2 μg/ml in coating buffer (10 mM phosphate, pH 7.2+0.02% NaN3), and allowed to adsorb overnight at 4° C. The plates were washed (all washes are 4× with TBST: 25 mM Tris/HCl, pH 8.0, 150 mM NaCl+0.05% Tween-20), and 200 μl/well of blocking buffer (TBST+1% BSA) was added. The plates were sealed and incubated at 37° C. for 60 min or overnight at 4° C., and washed again.
Kinase reactions were run in 50 μl volumes with biotinylated peptide substrate in a round-bottom plate (Corning, Corning, N.Y.). Kinase reactions mixtures contained; 20 μl 50 μM GAS 1 biotinylated peptide (LCBiotin-EGPWLEEEEEAYGWMDF-amide), 0-1250 μM ATP in kinase buffer, 10 μl 50 mM MgCl2 in 2× kinase buffer (50 mM imidazole/HCl, 2 mM EDTA, 0.2 mM EDTA, 0.030% Brij-35, pH 6.8), 10 μl 0-50 μM DBH in water containing 0.2% Pluronic-104 and 3% dimethyl sulfoxide (DMSO), and 10 μl JAK3 enzyme diluted in kinase buffer. A phosphopeptide standard curve (0-10 nM) using kinase buffer as the diluent was also tested.
Kinase reactions were run for 30 min at 37° C., then stopped by adding 15 μl/well of 0.125 M EDTA, pH 6.8. […] Samples were read at A450-A620.
(An ELISA detects its analyte on a solid surface through an enzyme-linked reagent.)

As a reminder, the Ki is the dissociation constant of the complex between target and ligand, obtained from inhibition or displacement. For the compound `NC1=NC(=O)C(=C2CCNC(=O)c3[nH]ccc32)N1` [DBH, 4-(2-amino-4-oxo-2-imidazolin-5-ylidene)-4,5,6,7-tetrahydropyrrolo(2,3-c) azepine-8-one], in experiment [1], the “inhibition of IL-1 induced degradation of glycosaminoglycan and extracellular matrix” value is “inhibit”. The Ki in experiment [2] stood at 286 ± 16 nM.

These data come from patent publication US20040209799A1, “JAK/STAT pathway inhibitors and the uses thereof” (priority 2000, published 2004).
